EP0562849A2, “Steroid derivatives” (priority 1992, dated 1993)
Where “and” joins values, the source holds several entries; their conditions need not be identical. Equal entries are not always repeated.

Legend:
[1] = system: human LDL receptor promoter; assay: in vitro Luciferase Activity Test (LDL receptor promoter-luciferase reporter in recombinant CHO cells); format: cell-based; conditions: maximum activity (%) over control, 15% luciferase activity cutoff point (footnote 2)
In short: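 Stably transfected CHO clone S27/B30 carries the 1546 bp human LDL receptor promoter driving firefly luciferase; an SV40 promoter-luciferase CHO line serves as nonspecific-transcription control. Assay medium is DMEM/Ham's F-12 (3:1) with 20 mM HEPES, 0.5% bovine albumin and 0.5 µg/ml 25-hydroxycholesterol.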

African green monkeys = assay: Monkey pilot study of plasma cholesterol levels on a hypercholesterolemic diet; format: in vivo; conditions: for Plasma Cholesterol Levels, individual animals: animals 1-6; for Plasma Cholesterol Levels, Mean: mean of six animals
Protocol: To study the effect in short term lowering of plasma cholesterol concentrations in African green monkeys.
Six African green monkeys were given a hypercholesterolemic diet containing 16.4% lard and 0.33% cholesterol for two weeks to establish a baseline cholesterol level. Thereafter, two daily doses of [14a,5a]-4-(2-propenyl)cholestan-3a-ol, the compound of Example 5, were administered in their feed at 25 mg/kg/day total daily dosage. After ten days the drug dose was increased to 50 mg/kg/day for an additional 3 weeks, followed by a washout period when no drug was administered and the hypercholesterolemic diet was maintained. Blood samples were drawn on the days indicated and plasma was prepared foranalysis. Cholesterol was determined by standard enzymatic techniques(method of Allain et aI., using diagnostics high performance Cholesterol Reagent No. 236691, product of Boehringer Mannheim Co., Indianapolis, Indiana USA).

Syrian Golden hamsters = assay: In vivo serum cholesterol lowering in hamsters fed a cholesterol test diet; conditions: hamsters
Protocol: Syrian Golden hamsters were fed a cholesterol test diet made of 10% coconut oil and 0.12% cholesterol (by weight) in Purina 5001 Rodent Chow to induce hypercholesteriolemia.
After two weeks on the cholesterol test diet the hamsters were bled from the orbital sinium under light CO2 anesthesia. Serum was prepared and analyzed for cholesterol using a commercial test kit (Cholesterol High Performance, Single Vial™, product of Boehringer Mannheim Corp., Indianapolis, IN, USA). The hamsters were separated into groups of six animals, such that each group had approximately the same mean serum cholesterol levels. Selected compounds of the invention were incorporated into the Cholesterol Test Diet at 0.2% (w/w) and fed to the hamsters for one week. A control group of hamsters continued on the Cholesterol Test Diet during the same one-week period. The dose of test compounds of the invention was equivalent to 100 mg/kg/day based on the weight of the hamsters and their diet consumption. Upon completion of the test period, the animals were bled and serum cholesterol determined as above.
Mean serum cholesterol values from the test hamsters were compared to values from the control group and tested for significance at the Z.05 level using Dunnett's test.

Compound: C=CC[C@@H]1[C@H](O)CC[C@@]2(C)[C@H]1CC[C@@H]1[C@@H]2CC[C@]2(C)[C@@H]([C@H](C)CCCC(C)C)CC[C@@H]12 [Example 5, [4a,5a]-4-(2-propenyl)cholestan-3a-ol]
- Emax ([1]; Homo sapiens, CHO, read-out: MA%): 121%
- MA% [1]: 120% and 135%
- Plasma Cholesterol Levels, individual animals (African green monkeys; Day 4, dose 50 mg/kg/day in feed, 50 mg/kg/day): 184 and 878 and 155 and 159 and 148 and 211
- Plasma Cholesterol Levels, Mean (African green monkeys; Day 4, dose 50 mg/kg/day): 205
- Plasma Cholesterol Levels, individual animals (African green monkeys; Day 5, dose 25 mg/kg/day in feed, 25 mg/kg/day): 268 and 411 and 175 and 182 and 189 and 252
- Plasma Cholesterol Levels, Mean (African green monkeys; Day 5, dose 25 mg/kg/day, Day 0 mean 252): 244
- Plasma Cholesterol Levels, individual animals (African green monkeys; Day 7 Washout (no drug, diet maintained)): 209 and 251 and 165 and 192 and 174 and 200
- Plasma Cholesterol Levels, Mean (African green monkeys; Day 7 Washout): 199
- Plasma Cholesterol Levels, individual animals (African green monkeys; Day 8, dose 25 mg/kg/day in feed, 25 mg/kg/day): 208 and 386 and 172 and 184 and 174 and 249
- Plasma Cholesterol Levels, Mean (African green monkeys; Day 8, dose 25 mg/kg/day): 226
- Plasma Cholesterol Levels, Mean (African green monkeys; Day 12 (50 mg/kg/day per method)): 190
- Plasma Cholesterol Levels, individual animals (African green monkeys; Day 12 (dose not given; 50 mg/kg/day per method), 50 mg/kg/day): 172 and 276 and 159 and 169 and 157 and 206
- Plasma Cholesterol Levels, individual animals (African green monkeys; Day 14 Washout (no drug, diet maintained)): 226 and 311 and 176 and 159 and 173 and 213
- Plasma Cholesterol Levels, Mean (African green monkeys; Day 14 Washout): 210
- Plasma Cholesterol Levels, Mean (African green monkeys; Day 20 (50 mg/kg/day per method)): 192
- Plasma Cholesterol Levels, individual animals (African green monkeys; Day 20 (dose not given; 50 mg/kg/day per method), 50 mg/kg/day): 188 and 314 and 143 and 161 and 142 and 206
- Plasma Cholesterol Levels, individual animals (African green monkeys; Day 21 Washout (no drug, diet maintained)): 270 and 344 and 193 and 168 and 216 and 246
- Plasma Cholesterol Levels, Mean (African green monkeys; Day 21 Washout): 240
- lowering plasma cholesterol levels (African green monkeys; conclusion of the pilot study, 25 then 50 mg/kg/day in feed): effective in lowering plasma cholesterol levels
- inhibition in vivo at 100 mg/kg/day (Syrian Golden hamsters; Mesocricetus auratus, feed or water, 168 h, 0.2% (w/w) in diet for one week (100 mg/kg/day), negative values = serum cholesterol increased relative to control, read-out: Percent Lowering of Cholesterol from Control Value Mean): 49.2%
- Serum Cholesterol Mean (Syrian Golden hamsters; 0.2% (w/w) in Cholesterol Test Diet for one week, equivalent to 100 mg/kg/day, groups of six, control mean 337, listed as (2)): 171 mg/dL
